Four molecules from patent US20230270781A1, “TREATMENT OR PREVENTION OF PRO-INFLAMMATORY DISEASES OR CONDITIONS USING INDUCED REGULATORY T (ITREG) CELLS” (RAPA THERAPEUTICS, LLC, priority 2020, published 2023) can be followed below.

Assay [1] concerns human CD4+ and CD8+ T cells. As to the kind of experiment: Flow cytometry of FOXP3, Tbet, GATA3 in extended hybrid Th2/TREG culture (days 12, 20, 32). The assay is classed as cell-based. The text has this:
To evaluate these transcription factors in our manufacturing method, T cells were first subjected to the step 1 de-differentiation procedure and then re-differentiated in the hybrid TREG-Th2 culture condition (IL-2, TGF-β, and IL-4). In addition, we compared the effects of pemetrexed with a classical mTOR inhibitor.
The iTREG phenotype is considered to be unstable; as such, we evaluated the stability of T cells re-differentiated using the hybrid TREG-Th2 culture condition at delayed time points, including days 20 and 32 of culture. In addition, to test phenotype stability in a rigorous manner, between day 24 and day 32 of culture, T cells received a high level of co-stimulation (3:1 bead-to-T cell ratio) and were propagated in media without cytokines or pharmacologic agents.
FIGS. 19A-19D illustrate that extended culture of de-differentiated T cells in the hybrid Th2/TREG polarization condition containing pemetrexed results in the generation of CD4^+ T cells expressing FOXP3 and GATA3 transcription factors. […] At days 12, 20, and 32 of culture, T cells were harvested and subjected to surface flow cytometry (CD4 marker) and intra-cellular staining for the following transcription factors, FOXP3, Tbet, and GATA3. The data above show the percent CD4 cells out of the total cultured population (FIG. 19A); the percent of CD4 cells that expressed the TREG transcription factor FOXP3 (FIG. 19B); the percent of CD4 cells that expressed the Th1 transcription factor Tbet (FIG. 19C); and the percent of CD4 cells that expressed the Th2 transcription factor GATA3 (FIG. 19D).
FIGS. 20A-20D illustrate that extended culture of de-differentiated T cells in the hybrid Th2/TREG polarization condition containing pemetrexed results in the generation of CD8^+ T cells expressing FOXP3 and GATA3 transcription factors. […] At days 12, 20, and 32 of culture, T cells were harvested and subjected to surface flow cytometry (CD8 marker) and intra-cellular staining for the following transcription factors, FOXP3, Tbet, and GATA3. […]
In general terms: In flow cytometry, cells or beads pass a laser one at a time.

Assay [2] has as its system human CD4+ and CD8+ T cells. As to the kind of experiment: Expansion of de-differentiated T cells in Th1, TREG or hybrid Th2/TREG polarization with or without pemetrexed. The assay is classed as cell-based. Here is the method: Human CD4^+ and CD8^+ T cells were subjected to a 3-day de-differentiation procedure (“STEP 1”). […] In addition, the T cell culture in the presence of the variable polarization conditions was performed without the novel inhibitory molecule, pemetrexed (“0”) or in the presence of variable concentrations of pemetrexed, as indicated (10 nM [“10”]; 33 nM [“33”]; or 100 nM [“100”]. After a total of 10 days of culture, the n=24 cultures were harvested and live cells were enumerated and graphed above (y-axis indicated number of cells × 10^6; input cell number was 1.5 × 10^6 cells).

For assay [3], the system named is human CD4+ and CD8+ T cells. As to the kind of experiment: Luminex cytokine secretion in extended hybrid Th2/TREG culture (days 12, 20, 32). The assay is classed as cell-based. The conditions noted are these: for ability of T cells to secrete IL-5 / ability of T cells to secrete IL-13: inhibitor in TREG-Th2 re-differentiation culture: temsirolimus 1.0 µM or pemetrexed 10 nM.
Excerpt: (§1) FIGS. 21A-21D illustrates that extended culture of de-differentiated T cells in the hybrid Th2/TREG polarization condition results in the generation of T cells expressing with a predominant Th2 cytokine phenotype: IL-4, IL-5, and IL-13 secretion. […] At days 12, 20, and 32 of culture, the T cells were harvested, washed, and restimulated with 3/28 beads (3:1 ratio) for 24 hr; the resultant supernatant was harvested and tested for cytokine content by Luminex multi-analyte method. All results shown are expressed as cytokine level in pg per ml per 1 × 10^6 cells/ml/24 hr. The Th2 cytokine IL-10 was also evaluated: all values were less than 20 pg/ml per 1 × 10^6 cells/ml/24 hr.
as §1, with “22A-22D illustrate” for “21A-21D illustrates”, “IL-2, IFN-γ,” for “IL-4, IL-5,”, “GM-CSF” for “IL-13”, “inflammatory cytokines IL-17 and TNF-α were” for “Th2 cytokine IL-10 was”

Assay [4] relates to human CD4+ and CD8+ T cells. As to the kind of experiment: Western blot for mTORC1 complex protein Raptor after 3-day de-differentiation culture. Format: cell-based. The text has this: After the 3-day culture interval, the T cells were harvested, and protein was isolated and subjected to western blot analysis for the mTORC1 complex protein, Raptor, and the housekeeping gene, Actin.
In general terms: A western blot detects proteins with antibodies after separation by electrophoresis.

Assay [5] deals with human CD4+ and CD8+ T cells. As to the kind of experiment: T cell yield at day 13 after de-differentiation interval and re-stimulation without inhibitors. Particulars: column #7; temsirolimus reduced to 0.1 µM. Format: cell-based. Here is the method:
After 10 days (13 days of total culture), the T cells were harvested, enumerated, and evaluated by flow cytometry. FIG. 8 illustrates the effect of culture components during the de-differentiation interval on subsequent T cell yield (at day 13 of culture). […] After the 3-day interval, media was exchanged to fresh X-Vivo 20 without inhibitors, high-level co-stimulation was provided (3:1 bead-to-T cell ratio), and the T cell growth cytokines IL-2 (100 IU/ml) and IL-7 (10 ng/ml) were added. At day 13 of culture, viable T cells were enumerated and the overall yield is shown relative to day 0 input number.

The test system of assay [6] is human CD4+ and CD8+ T cells. As to the kind of experiment: RNA expression analysis (Luminex Quantigene) after 3-day de-differentiation culture. Format: cell-based. Particulars: relative to control Th1/Tc1 culture, temsirolimus 1 µM. The method, then: At the end of the de-differentiation interval, cells were harvested, RNA was isolated, and RNA expression analysis was performed by Luminex Quantigene method. All results shown represent relative RNA expression, with results normalized to a value of 1.0 for the Th1/Tc1 control culture.

The subject of assay [7] is human CD4+ and CD8+ T cells. In words: Western blot for Raptor, Rictor, p70S6K, SGK1 after 3-day de-differentiation culture. Format: cell-based. Particulars: relative to control culture without the three inhibitors; temsirolimus 1 µM, Vitamin D 0.03-1.0 nM, Daclizumab 50 µg/ml. The text has this: After the 3-day culture interval, the T cells were harvested, and protein was isolated and subjected to western blot analysis for the mTORC1 complex protein, Raptor; the mTORC2 complex protein, Rictor; the post-mTORC1 protein p70S6K; the post-mTORC2 protein, SGK1; and the housekeeping gene, GAPDH.

In assay [8] the test system is T cell TCR specificities of peripheral blood mononuclear cells. In words: RNA-based T cell receptor repertoire profiling pre- and post-etanercept therapy. The assay is classed as in vivo, human. The text has this: FIGS. 23A & 23B depict the use of RNA-based T cell receptor sequencing to detect a widespread up- and down-regulation of T cell TCR specificities after therapy with the TNF-α inhibitor, etanercept. In FIG. 23, RNA was isolated from peripheral blood mononuclear cells from an patient pre- and post-therapy with etanercept therapy. The RNA was subjected to TCR repertoire profiling, as previously described by Rosati E, Dowds CM, Liaskou E, Henriksen EKK, Karlsen TH, Franke A. Overview of methodologies for T-cell receptor repertoire analysis. BMC Biotechnol. 2017;17(1):61.
FIGS. 36A-36B depict use of RNA-based T cell receptor sequencing to detect a widespread up- and down-regulation of T cell TCR specificities after therapy with the TNF-α inhibitor, etanercept. In FIGS. 36A-36B, RNA was isolated from peripheral blood mononuclear cells from a patient pre- and post-therapy with etanercept therapy. The RNA was subjected to TCR repertoire profiling, as previously described by Rosati E, Dowds CM, Liaskou E, Henriksen EKK, Karlsen TH, Franke A. Overview of methodologies for T-cell receptor repertoire analysis. BMC Biotechnol. 2017;17(1):61.

Assay [9] deals with human CD4+ and CD8+ T cells. As to the kind of experiment: Western blot for pro-apoptosis molecule BIM after 3-day de-differentiation culture. The assay is classed as cell-based. The conditions noted are these: 1:3 bead-to-T cell ratio; temsirolimus, Vitamin D 0.1 nM, Daclizumab 50 µg/ml. The text has this:
After the 3-day culture interval, the T cells were harvested, and protein was isolated and subjected to western blot analysis for the pro-apoptosis-related gene, BIM, and the housekeeping gene, Actin.

The mark [10] stands for this setting: 3-day culture, bead-to-T cell ratio 1:3, Vitamin D 0.1 or 1.0 nM.
Setting [11] is: patient PBMC, post- versus pre-etanercept.

On to `Nc1nc2[nH]cc(CCc3ccc(C(=O)N[C@@H](CCC(=O)O)C(=O)O)cc3)c2c(=O)[nH]1` [pemetrexed], for which the “CD4 cells expressing GATA3” value in [1] (end of culture, hybrid condition with pemetrexed 10 nM versus no inhibitor or temsirolimus) is recorded as “highest end-of-culture Th2-associated GATA3 expression”. Moreover, in assay [1] (hybrid condition in the presence of pemetrexed 10 nM), the “CD8+ T cells expressing TBET” value is listed as “lowest levels”. The “CD4 cells expressing TBET” value in [1] (hybrid polarization condition with pemetrexed 10 nM versus no inhibitor or temsirolimus) is “most consistently reduced TBET values”. Moreover, the “T cell number after re-differentiation in pure TREG polarization (IL-2 plus TGF-β without IL-4)” value in assay [2] (most stringent step 1, cultures #20 and #21, in the presence of pemetrexed) was “unsuccessful”. The “T cell number after re-differentiation in TREG-Th2 polarization” value in assay [2] (step 1 temsirolimus, vitamin D, anti-IL-2 receptor antibody, pemetrexed 10 nM in step 2, 10 days) was “sufficient T cells”. The GM-CSF secretion result in assay [3] (TREG-Th2 hybrid culture supplemented with pemetrexed 10 nM) is recorded as “higher degree”. Further, in assay [3], the “ability of T cells to secrete IL-5” value is on record as “fully preserved” and the “ability of T cells to secrete IL-13” value is listed as “fully preserved”.

As to `CO[C@H]1C[C@@H]2CC[C@@H](C)[C@@](O)(O2)C(=O)C(=O)N2CCCC[C@H]2C(=O)O[C@H]([C@H](C)C[C@@H]2CC[C@@H](OC(=O)C(C)(CO)CO)[C@H](OC)C2)CC(=O)[C@H](C)/C=C(\C)[C@@H](O)[C@@H](OC)C(=O)[C@H](C)C[C@H](C)/C=C/C=C/C=C/1C` [temsirolimus], in assay [4] (culture 9, temsirolimus 0.3 µM, versus 1.0 µM), the “Raptor expression at temsirolimus 0.3 µM” value is listed as “higher levels of Raptor expression”. Besides, the “temsirolimus dose for optimal down-regulation of Raptor” value in [4] (in combination with Vitamin D) is 1.0 µM. For the same molecule, the “T cell yield at day 13 with temsirolimus 0.1 µM” value in assay [5] is on record as “reduced the resultant T cell yield”. Also, in assay [6] (setting [10]), the “Granzyme B RNA expression” value is listed as “reduction”, the “IFN-gamma RNA expression” value is given as “reduction” and the “IL-10 RNA expression” value is “reduction”. For the same molecule, in assay [6] (Vitamin D 1.0 nM), the “IL-7 receptor alpha RNA expression” value is listed as “capable of up-regulating”, the “KLF4 RNA expression” value was “neither temsirolimus nor Vitamin D alone increased” and the “KLF10 RNA expression” value is given as “acts alone to beneficially up-regulate”. In addition, in assay [6] (Vitamin D 0.1 to 1.0 nM), the “HIF-1-α RNA expression” value is listed as “did not down-regulate”, the “Nanog transcription factor RNA expression” value is listed as “up-regulation”, the “STAT1 RNA expression” value is “acts alone to beneficially down-regulate” and the “T-BET RNA expression” value is recorded as “acts alone to beneficially down-regulate”. For the same molecule, the “Rictor expression (western blot)” value in assay [7] is recorded as “effective”. Besides, in assay [3], the “ability of T cells to secrete IL-5” value is reported as “blunted” and the “ability of T cells to secrete IL-13” value is given as “blunted”.

Regarding etanercept, the “post-treatment frequencies of contracted T cell clones (SEQ ID NOs: 1-3 and 5)” value in assay [8] (decreased from frequencies of 259 to 598 pre-etanercept) is 0.01. For the same molecule, in assay [8] (setting [11]), the “TCR specificities down-regulated in the post-therapy sample” value was “approximately 25%” and the “TCR specificities up-regulated in the post-therapy sample” value was “approximately 25%”. Besides, in [8] (post- versus pre-etanercept), the “T cell clonal contraction” value is reported as “more than 4 log” and the “T cell clonal expansion” value is “more than 4 log”.

B1: Daclizumab: anti-IL-2 receptor monoclonal antibody (antibody, chains of the INN, looked up, V domains shown)
VH: QVQLVQSGAEVKKPGSSVKVSCKASGYTFTSYRMHWVRQAPGQGLEWIGYINPSTGYTEYNQKFKDKATITADESTNTAYMELSSLRSEDTAVYYCARGGGVFDYWGQGTLVTVSS
VL: DIQMTQSPSTLSASVGDRVTITCSASSSISYMHWYQQKPGKAPKLLIYTTSNLASGVPARFSGSGSGTEFTLTISSLQPDDFATYYCHQRSTYPLTFGQGTKVEVK
For the molecule B1, in [4] (1:3 bead-to-T cell ratio, temsirolimus 1.0 µM, Vitamin D 0.1 nM, daclizumab 50 µg/ml), the “Raptor expression (western blot, normalized by actin)” value is listed as “beneficial role in suppressing”. The “BIM expression (western blot, normalized by actin)” value in [9] was “beneficial role in suppressing”. Also, in assay [7], the “Rictor expression (western blot)” value is listed as “did not abrogate”.
